Patent publication US10842783B2, “Avibactam and carbapenems antibacterial agents” (THE JOHNS HOPKINS UNIVERSITY, priority 2017, dated 2020)
“Also recorded” adds a separate entry of the source. Read-outs that look alike come from different tables or passages of the source.

Assays:
M. abscessus ATCC 19977 = assay: Broth microdilution MIC of carbapenems with and without β-lactamase inhibitors, reference strain; assay type: cell-based, Mycobacterium abscessus; details: for MIC: Mycobacteroides abscessus; for Ability of the β-lactamase inhibitor to reduce MICs of carbapenems, in words: inhibitor at 4 μg/mL; for Minimum inhibitory concentration, 7H9 + avibactam / Minimum inhibitory concentration, CAMHB + avibactam: avibactam at fixed 4 μg/mL; for Minimum inhibitory concentration, 7H9 + sulbactam: sulbactam at fixed 4 μg/mL; for Minimum inhibitory concentration, 7H9 + tazobactam: tazobactam at fixed 4 μg/mL
Description: (§1) All strains were initially grown in 7H9 complete medium composed of Middlebrook 7H9 broth (Difco) supplemented with 0.5% glycerol, 10% oleic acid-albumin-dextrose-catalase and 0.05% Tween-80 at 37° C. with constant shaking. A standard broth microdilution method was used to determine MIC. Briefly, M. abscessus strains were grown as described above and these cultures, at exponential phase (A600 nm˜0.6-0.8), were used to inoculate 10^5 colony forming units (CFU) into each well of microtiter culture plates containing a carbapenem at two fold serial dilutions ranging from 256 to 0.25 μg/mL. An identical setup but with wells containing 4 μg/mL of avibactam was used to assess the effect of this agent on each carbapenem. Carbapenems studied were procured commercially from Sigma-Aldrich and include ertapenem, meropenem, imipenem, doripenem, biapenem, faropenem, tebipenem and panipenem. β-lactamase inhibitors sulbactam, tazobactam and avibactam were also procured from Sigma-Aldrich. In addition, to establish baseline antibacterial susceptibility for each strain we also determined MICs for drugs currently used to treat M. abscessus infections. They are linezolid, cefoxitin, kanamycin, ciprofloxacin, moxifloxacin, amikacin, tigecycline, imipenem, tobramycin, trimethoprim/sulfamethoxazole, and clarithromycin. M. abscessus growth was evaluated by visual inspection of pellets after 3 days of incubation (the exception being clarithromycin for which incubation was extended to 14 days) at 30° C. without shaking per CLSI guidelines. In addition to assessment in 7H9 complete medium, we also used cation adjusted Mueller-Hinton broth for MIC studies for the reference strain M. abscessus ATCC 19977. All experiments were repeated and the final data represent the average of two biological replicates.
We studied the utility of β-lactamase inhibitors sulbactam, tazobactam, and avibactam in restoring in vitro potencies of carbapenems against M. abscessus using the reference drug-susceptible strain ATCC 19977. We determined MICs of ertapenem, meropenem, imipenem, doripenem, biapenem, faropenem, tebipenem and panipenem alone or in the presence of the aforementioned […] β-lactamase inhibitors.

[1] = test system: M. abscessus clinical strains; assay: Broth microdilution MIC of carbapenems with and without avibactam, twenty eight clinical isolates; assay type: cell-based, Mycobacterium abscessus; details: for Average reduction in MICs of the carbapenems in combination with avibactam: twenty eight clinical strains; for Average reduction in MICs of the carbapenems in combination with avibactam / Effect of avibactam on the MIC of the carbapenem, in words: avibactam 4 μg/mL; for Effect of avibactam on the MIC of the carbapenem, in words: clinical strains
Description: Twenty eight unique clinical isolates of M. abscessus were used in this study. These strains were obtained de-identified from the archive of the clinical microbiology laboratory of the Johns Hopkins University Hospital per institutional ethical guidelines. They were isolated over a 10 year period, from 2005-2015, from patients that were temporally and geographically unrelated. No two isolates are from the same patient. Those displaying a high level of resistance to antibacterials used for M. abscessus infection were selected for this study. All strains obtained prior to 2014 were identified to the M. abscessus complex level using a variety of methods including 16S rDNA sequencing in conjunction with selected biochemical testing such as sodium citrate. More recent isolates (those isolated after 2014) were identified using MALDI ToF mass spectrometry in which a Bruker MicroFlex LT (MicroFlex LT) mass spectrometer and Bruker Biotyper software and existing database (version 2.0, Bruker) were employed. Sub-speciation within the M. abscessus complex, which helps to distinguish between M. abscessus sensu stricto, M. massiliense, and M. bolletii, was not done as this is not per the current standard of care at the Johns Hopkins Clinical Mycobacteriology Laboratory. Distinguishing between M. abscessus sensu stricto and M. massiliense is most often performed to guide therapy since M. massiliense is known to have a non-funtional erm gene and is therefore susceptible to macrolides. However, due to the high number of macrolide resistant M. abscessus complex isolates recovered at Johns Hopkins, most patient isolates are subjected to drug susceptibility testing, making speciation within the complex of lesser importance. Thus, the proportion of each subspecies within the M. abscessus complex for the Johns Hopkins strain collection is not known. M. abscessus ATCC 19977 was included as a reference drug-sensitive strain.
as §1

[2] = in vivo; cited from earlier work
[3] = ATCC19977, 7H9 broth, drug alone, read-out: Minimum inhibitory concentration, 7H9 broth
[4] = ATCC19977, cation-adjusted Mueller-Hinton broth, drug alone, read-out: Minimum inhibitory concentration, CAMHB only
[5] = ATCC19977, carbapenem alone, single values given, read-out: MIC of carbapenems against the drug sensitive control strain
[6] = cation-adjusted Mueller-Hinton broth
[7] = with avibactam, against M. abscessus

| SMILES | MIC (M. abscessus ATCC 19977; [3]) [µg/mL] | MIC (M. abscessus ATCC 19977; [4]) [µg/mL] | Ability of the β-lactamase inhibitor to reduce MICs of carbapenems, in words (M. abscessus ATCC 19977) | Average reduction in MICs of the carbapenems in combination with avibactam [1] [fold] | Minimum inhibitory concentration, 7H9 + avibactam (M. abscessus ATCC 19977; 7H9 broth) [µg/mL] | Minimum inhibitory concentration, 7H9 + sulbactam (M. abscessus ATCC 19977; 7H9 broth) [µg/mL] | Minimum inhibitory concentration, 7H9 + tazobactam (M. abscessus ATCC 19977; 7H9 broth) [µg/mL] | MIC (M. abscessus ATCC 19977; [5]) [µg/mL] | Minimum inhibitory concentration, CAMHB + avibactam (M. abscessus ATCC 19977; [6]) [µg/mL] | Average peak plasma concentration [2] [µg/mL] | Half-life [2] [h] | Effect of avibactam on the MIC of the carbapenem, in words [1] | MIC (M. abscessus ATCC 19977; ATCC19977, read-out: Minimum inhibitory concentration, 7H9 broth) [µg/mL] | Fold decrease of MIC by avibactam [1, 7] | MIC of carbapenem as reduced by avibactam [1, 7] [µg/mL] |
| --- | --- | --- | --- | --- | --- | --- | --- | --- | --- | --- | --- | --- | --- | --- | --- |
| NC(=O)[C@@H]1CC[C@@H]2CN1C(=O)N2OS(=O)(=O)O [Avibactam, avibactam] | > 256 | > 256 | most active | – | – | – | – | – | – | – | – | – | – | – | – |
| C[C@@H](O)[C@H]1C(=O)N2C(C(=O)[O-])=C(SC3Cn4cnc[n+]4C3)[C@H](C)[C@H]12 (some centres unmarked) [Biapenem, biapenem] | 8 to 16 | 16 to 32 | – | 5 | 2 to 4 | 4 to 8 | 8 to 16 | 16 | 8 to 16 | – | – | – | – | – | – |
| C[C@@H](O)[C@H]1C(=O)N2C(C(=O)O)=C(S[C@@H]3CN[C@H](CNS(N)(=O)=O)C3)[C@H](C)[C@H]12 [Doripenem, doripenem] | 8 to 16 | 16 to 32 | – | 6 | 2 to 4 | 8 to 16 | 8 to 16 | 16 | 4 to 8 | – | – | – | – | – | – |
| C[C@@H](O)[C@H]1C(=O)N2C(C(=O)O)=C(S[C@@H]3CN[C@H](C(=O)Nc4cccc(C(=O)O)c4)C3)[C@H](C)[C@H]12 [Ertapenem, ertapenem] | 64 to 128 | 128 to 256 | – | > 13 | 4 to 8 | >64 | 32 to 64 | 128 | 8 to 16 | ~150 | ~4 | levels that are therapeutically relevant; also recorded: levels achievable in the blood | – | – | – |
| C[C@@H](O)[C@H]1C(=O)N2C(C(=O)O)=C([C@H]3CCCO3)S[C@H]12 [Faropenem, faropenem] | 32 to 64 | 64 to 128 | – | 3 | 8 to 16 | 16 to 32 | 32 to 64 | 64 | 16 to 32 | – | – | least effective | – | – | – |
| C[C@@H](O)[C@H]1C(=O)N2C(C(=O)O)=C(SCCN=CN)C[C@H]12 [Imipenem, imipenem] | 4 to 8 | 8 to 16 | – | 2 | 2 to 4 | 4 to 8 | 2 to 4 | 8 | 4 to 8 | – | – | – | – | – | – |
| C[C@@H](O)[C@H]1C(=O)N2C(C(=O)O)=C(S[C@@H]3CN[C@H](C(=O)N(C)C)C3)[C@H](C)[C@H]12 [Meropenem, meropenem] | 8 to 16 | 32 to 64 | – | 6 | 2 to 4 | 8 to 16 | 8 to 16 | 16 | 4 to 8 | – | – | – | – | – | – |
| CC(=N)N1CC[C@H](SC2=C(C(=O)O)N3C(=O)[C@H]([C@@H](C)O)[C@H]3C2)C1 [Panipenem, panipenem] | 64 to 128 | 64 to 128 | – | 8 | 8 to 16 | 16 to 32 | 32 to 64 | 128 | 8 to 16 | ~22 | – | levels that are therapeutically relevant; also recorded: levels achievable in the blood | – | – | – |
| CC1(C)[C@H](C(=O)O)N2C(=O)C[C@H]2S1(=O)=O [Sulbactam, sulbactam] | – | – | failed to reduce the MICs; also recorded: failed to observe significant reduction in MIC | – | – | – | – | – | – | – | – | – | > 64 | – | – |
| C[C@]1(Cn2ccnn2)[C@H](C(=O)O)N2C(=O)C[C@H]2S1(=O)=O [Tazobactam, tazobactam] | > 64 | – | failed to reduce the MICs; also recorded: failed to observe significant reduction in MIC | – | – | – | – | – | – | – | – | – | – | – | – |
| C[C@@H](O)[C@H]1C(=O)N2C(C(=O)O)=C(SC3CN(C4=NCCS4)C3)[C@H](C)[C@H]12 [Tebipenem, tebipenem] | 128 to 256 | 128 to 256 | – | > 38 | 4 to 8 | >64 | >64 | 256 | 8 to 16 | ~8 | 1 | levels that are therapeutically relevant; also recorded: largest reduction in MIC | – | 32-64 fold | 4 to 8 |
| O=C(O)[C@H]1/C(=C/CO)O[C@@H]2CC(=O)N21 [clavulanate] | – | – | failed to observe significant reduction in MIC | – | – | – | – | – | – | – | – | – | – | – | – |
